Test results: the SangsterLogP compilation

Test: method code SF, from DOI: 10.1002/em.2850190108, PMID: 1732104
Conditions: not given

| SMILES | logP |
| --- | --- |
| O=[N+]([O-])c1ccc2c3c(cccc13)CC2 | 3.85 |
| O=[N+]([O-])c1cc([N+](=O)[O-])c2ccccc2c1 | 2.83 |
| O=C1Nc2ccc([N+](=O)[O-])cc2C1=O | 0.47 |
| Cc1ccc2cccc([N+](=O)[O-])c2n1 | 1.99 |

Test: not given
Conditions: not given

| SMILES | logP |
| --- | --- |
| CCNc1nc(Cl)nc(NC(C)C)n1 | 2.63 |
| ClC(Cl)=C(Cl)c1c(Cl)c(Cl)c(Cl)c(Cl)c1Cl | 6.29 |
| COc1c(Br)cc(Br)cc1Br | 4.48 |
| Clc1ccc2c(ccc3ccccc32)c1 | 5.16 |

Test: method code SF-AS, from DOI: 10.1002/1521-3838(200111)20:4<291::aid-qsar291>3.0.co;2-q
Conditions: not given

| SMILES | logP |
| --- | --- |
| Cc1ccc(-c2n[nH]c(=S)o2)cc1 | 3.44 |
| S=c1[nH]nc(-c2ccc(Cl)cc2)o1 | 3.66 |
| S=c1[nH]nc(-c2ccccc2Cl)o1 | 3.36 |
| Oc1ccccc1-c1n[nH]c(=S)o1 | 2.42 |

Test: not given
Conditions: not given
Remark: another data set of the same source

| SMILES | logP |
| --- | --- |
| O=C(O)c1cc(Cl)nc(Cl)c1 | 2.6 |
| CCOC(=O)c1cc(Cl)nc(Cl)c1 | 3.6 |
| O=C(O)c1nc(Cl)ccc1Cl | 1.06 |
| O=C(O)c1cc(Br)nc(Br)c1 | 2.8 |

Test: method code SF, from DOI: 10.1016/s0045-6535(97)00338-x
Conditions: not given

| SMILES | logP |
| --- | --- |
| CC(=O)c1ccc(F)cc1 | 1.74 |
| CC(=O)c1cc(F)c(Cl)cc1Cl | 3.4 |
| Nc1ccc(F)cc1 | 1.18 |
| Nc1ccc(F)c(F)c1F | 2.14 |

Test: not given
Conditions: not given
Remark: another data set of the same source

| SMILES | logP |
| --- | --- |
| Nc1cccc2cccnc12 | 1.79 |
| Nc1ccc(Sc2ccccc2)cc1 | 2.18 |
| COc1ccc(C)cc1N | 1.74 |
| Nc1ccc(Cl)cc1N | 1.28 |

Test: not given
Conditions: not given
Remark: another data set of the same source

| SMILES | logP |
| --- | --- |
| N#Cc1ccccc1[N+](=O)[O-] | 1.16 |
| N#Cc1ccc([N+](=O)[O-])cc1 | 1.25 |
| O=[N+]([O-])c1cccc(O)c1 | 1.88 |
| Clc1ccccc1 | 2.73 |

Test: method code SF-RC, from DOI: 10.1021/jm901332c, PMID: 19921956
Conditions: pH 7.4

| SMILES | logD |
| --- | --- |
| Cn1cnc2ncnc(Cl)c21 | 0.03 |
| Cn1cnc2ncnc(F)c21 | -0.62 |
| Cn1cnc2ncnc(Br)c21 | 0.2 |
| Cn1cnc2c(F)ncnc21 | 0.11 |

Test: method code SF, from DOI: 10.1021/jm00378a018, PMID: 6389865
Conditions: pH 7.0

| SMILES | logD |
| --- | --- |
| O=[N+]([O-])c1cnc(NC(CO)C(O)CO)cn1 (stereo unspecified) | -0.89 |
| COC(=O)c1nc(NCC(O)CO)cnc1[N+](=O)[O-] (stereo unspecified) | -0.1 |
| O=[N+]([O-])c1nccnc1NCC(O)CO (stereo unspecified) | -0.49 |
| Nc1nc(NCCO)c(Cl)nc1[N+](=O)[O-] | 0.12 |

Test: method code SF-AS, from DOI: 10.1007/bf02922495
Conditions: not given

| SMILES | logP |
| --- | --- |
| N#CC(C#N)=Cc1ccco1 | 1.5 |
| COC(=O)C(C#N)=Cc1ccc(Cl)o1 | 2.4 |
| N#CC(C#N)=Cc1ccc(Cl)o1 | 2.17 |
| COC(=O)/C(C#N)=C/c1ccco1 | 1.75 |

Test: method code SF-AS, from DOI: 10.1016/0378-5173(82)90004-7
Conditions: pH 3.0

| SMILES | logD |
| --- | --- |
| CC1(c2ccccc2)C(=O)NC(=O)NC1=O | 0.91 |
| O=C1NC(=O)C(c2ccccc2)(c2ccccc2)C(=O)N1 | 1.96 |
| CCC1(C)C(=O)NC(=O)NC1=O | 0.08 |
| C=CCC1(C)C(=O)NC(=O)NC1=O | 0.36 |

Test: method code SF, from DOI: 10.1038/bjc.1982.190, PMID: 7150475
Conditions: pH 7.4

| SMILES | logD |
| --- | --- |
| Cn1cnc([N+](=O)[O-])c1S(=O)(=O)Oc1ccccc1 | 1.08 |
| O=C1CN(/N=C/c2ccc([N+](=O)[O-])o2)C(=O)N1 | -0.19 |
| O=[N+]([O-])c1nccn1CC(O)CCN1CCOCC1 (stereo unspecified) | -0.53 |
| NC(=O)c1cc(N2CC2)c([N+](=O)[O-])cc1[N+](=O)[O-] | 0.2 |

Test: not given
Conditions: not given
Remark: another data set of the same source

| SMILES | logP |
| --- | --- |
| OCc1ccccc1I | 2.43 |
| OCc1ccccc1Br | 2.08 |
| Nc1c(F)cccc1F | 1.61 |
| Fc1cccc(F)c1 | 2.33 |

Test: not given
Conditions: not given
Remark: another data set of the same source

| SMILES | logP |
| --- | --- |
| COc1ccc(OC)cc1 | 2.03 |
| Cc1ccc(Cl)cc1O | 2.63 |
| COc1cccc(Cl)c1 | 2.98 |
| COc1ccc(N)c([N+](=O)[O-])c1 | 1.86 |

Test: method code SF-HPLC, from DOI: 10.1016/0378-5173(82)90005-9
Conditions: pH 3.0

| SMILES | logD |
| --- | --- |
| O=C1NC(=O)C2(CCCCCCCCCC2)C(=O)N1 | 3.15 |
| O=C1NC(=O)C2(CCCC2)C(=O)N1 | 0.24 |
| O=C1NC(=O)C2(CC2)C(=O)N1 | -0.53 |
| O=C1NC(=O)C2(CCCCC2)C(=O)N1 | 0.91 |

Test: not given
Conditions: not given
Remark: another data set of the same source

| SMILES | logP |
| --- | --- |
| CCCCCCC(C)O (stereo unspecified) | 2.9 |
| CC1CCCC(C)C1O (stereo unspecified) | 2.37 |
| CCCC(O)CC (stereo unspecified) | 1.65 |
| C[C@@H]1CCCC[C@H]1O | 1.82 |

Test: method code SF-AS, from Ganga, L. X. J. S., & Zun-Yaob, L. H. W. (2009). Determination of lgKow and QSPR Study on Some Fluorobenzene Derivatives. Jiegou Huaxue, 28(10).
Conditions: not given

| SMILES | logP |
| --- | --- |
| Fc1ccc(F)c(F)c1 | 2.34 |
| Fc1cc(F)c(F)cc1F | 2.44 |
| Oc1ccc(F)cc1F | 1.9 |
| Fc1ccccc1F | 2.1 |

Test: method code SF-HPLC, from DOI: 10.1002/jps.2600750520, PMID: 3735094
Conditions: pH 4.0

| SMILES | logD |
| --- | --- |
| CCCCOC(=O)n1cc(F)c(=O)[nH]c1=O | 0.89 |
| CC(C)COC(=O)n1cc(F)c(=O)[nH]c1=O | 0.87 |
| CCOC(=O)n1cc(F)c(=O)[nH]c1=O | -0.17 |
| COC(=O)n1cc(F)c(=O)[nH]c1=O | -0.68 |

Test: method code SF-CR+AS, from DOI: 10.1016/s0003-2670(00)84151-3
Conditions: not given

| SMILES | logP |
| --- | --- |
| NC(=S)c1ccc([N+](=O)[O-])cc1 | 1.75 |
| COc1ccc(C(N)=S)cc1 | 1.63 |
| NC(=S)c1ccc(Cl)cc1 | 2.4 |
| Cc1ccc(C(N)=S)cc1 | 2.01 |

Test: not given
Conditions: not given
Remark: another data set of the same source

| SMILES | logP |
| --- | --- |
| CN1CC(C(=O)O)CC1=O (stereo unspecified) | -1.5 |
| CCCCCCCCCCCCN1CC(C(=O)OC)CC1=O (stereo unspecified) | 4 |
| CCCCCCN1CC(C(=O)O)CC1=O (stereo unspecified) | 1.6 |
| CCCCCCN1CCCC1=O | 2.6 |

Test: method code SF-AS, from DOI: 10.1111/j.1476-5381.1975.tb07619.x, PMID: 1182339
Conditions: pH 10.0

| SMILES | logD |
| --- | --- |
| N=C(N)NC(=O)Nc1ccc(Cl)cc1 | 1.78 |
| N#Cc1ccc(NC(=O)NC(=N)N)cc1Cl | 1.9 |
| N=C(N)NC(=O)Nc1ccc([N+](=O)[O-])c(Cl)c1 | 1.79 |
| Cc1cc(NC(=O)NC(=N)N)ccc1Cl | 2.19 |

Test: method code SF, from DOI: 10.1016/j.jiec.2010.03.003
Conditions: not given

| SMILES | logP |
| --- | --- |
| C=COCCC | 2 |
| CCOC(C)(C)C | 1.71 |
| CCC(C)(C)OC | 1.81 |
| CC(C)OC(C)C | 1.94 |

Test: method code SF-GLC, from DOI: 10.1016/s0021-9673(01)83612-8
Conditions: pH 13.0

| SMILES | logD |
| --- | --- |
| CC1Cc2ccccc2CN1 (stereo unspecified) | 1.93 |
| CC(N)CC1CCCCC1 (stereo unspecified) | 2.96 |
| CNC1CCc2ccccc2C1 (stereo unspecified) | 2.38 |
| CCCCCC(C)N (stereo unspecified) | 2.4 |

Test: method code SF-GLC, from Boikov, Yu.; Shibaev, V.; Gaidamaka, V.; V'yunov, K. (1989). Study of correlation between extraction characteristics of glycidyl ethers and theri structure. 62(1)177-179.
Conditions: not given

| SMILES | logP |
| --- | --- |
| CCCCOCC1CO1 (stereo unspecified) | 0.55 |
| COCC1CO1 (stereo unspecified) | 0.03 |
| CC(C)OCC1CO1 (stereo unspecified) | 0.8 |
| CCCOCC1CO1 (stereo unspecified) | 0.5 |

Test: method code SF, from DOI: 10.1021/js9700917, PMID: 9452977
Conditions: pH 5.5

| SMILES | logD |
| --- | --- |
| CC(=O)Nc1ccc(S(=O)(=O)Nc2cc(C)nc(C)n2)cc1 | -0.14 |
| NS(=O)(=O)c1ccncn1 | -0.2 |
| CC(=O)Nc1ccc(S(=O)(=O)Nc2nc(C)c(C)o2)cc1 | 0.46 |

Test: method code SF-RC, from DOI: 10.1002/ps.2780130506
Conditions: not given

| SMILES | logP |
| --- | --- |
| CNC(=O)ON=C(C)C | -0.13 |
| NC(=O)Nc1ccc(Oc2ccc(Br)cc2)cc1 | 3.7 |
| CNC(=O)O/N=C/c1ccccc1 | 1.49 |
| CNC(=O)ON=Cc1ccc(Cl)cc1 | 2.27 |

Test: not given
Conditions: not given
Remark: another data set of the same source

| SMILES | logP |
| --- | --- |
| CCOC(=O)CC(SP(=S)(OC)OC)C(=O)OCC (stereo unspecified) | 2.18 |
| COP(=S)(OC)Oc1nc(Cl)c(Cl)cc1Cl | 3.99 |
| CCN(CC)c1nc(C)cc(OP(=S)(OC)OC)n1 | 3.8 |
| CN(C)C(=O)Nc1ccccc1 | 1.18 |

Test: not given
Conditions: not given
Remark: another data set of the same source

| SMILES | logP |
| --- | --- |
| NC(=S)N/N=C/c1ccc([N+](=O)[O-])o1 | 1.64 |
| CCS(=O)(=O)CCn1c([N+](=O)[O-])cnc1C | -0.38 |
| NC(=S)N/N=C\c1ccco1 | 1.64 |
| O=[N+]([O-])c1ccc(/C=N\O)o1 | 0.3 |
